In US8003630B2, “Combinatorial therapies for the treatment of neoplasias using the opioid growth factor receptor” (The Penn State Research Foundation, priority 2004, dated 2011):
Marks after values point to notes of the source that are not given here.

How the values were obtained:
SCC-1 cells = assay: Necrosis, trypan blue positivity of SCC-1 cells; assay type: cell-based, human; details: SCC-1 cultures or supernatants
Protocol: Cell number was recorded either by using the MTS proliferation bioassay (Cell Titer 96 One Solution, Promega, Madison, Wis.) and measuring absorbency after 4 hr on a Biorad (Model 3550) plate reader at 490 nm with a 750 nm background absorbance screening, or by directly counting cells. The MTS assay utilized 10 wells/treatment. For manual counts, cells were harvested by trypsinization with 0.25% trypsin/0.53 mM EDTA, centrif uiged, and counted with a hemacytometer. Cell viability was determined by trypan blue staining. At least two aliquots per well, and 4-10 wells/treatment, were counted at each time for manual counting.

[1] = Plasma levels of OGF by radioimmunoassay, SCC-1 tumor mice; assay type: in vivo, nude mice; details: at termination
Protocol: Plasma samples were assayed in duplicate.

OGFr = target: T1, OGFr (Homo sapiens, UniProt Q9NZT2); assay: Receptor binding analysis of OGFr in SCC-1 tumors from treated mice; details: OGFr in SCC-1 tumors from mice of the treatment group; means ± SEM
T1 construct: Tumor tissues from some mice in each treatment group were removed at the time of death; from tissue; host or cells: SCC-1 squamous cell carcinoma xenograft tumors grown subcutaneously in nude mice
T1 sequence (Q9NZT2 1-677): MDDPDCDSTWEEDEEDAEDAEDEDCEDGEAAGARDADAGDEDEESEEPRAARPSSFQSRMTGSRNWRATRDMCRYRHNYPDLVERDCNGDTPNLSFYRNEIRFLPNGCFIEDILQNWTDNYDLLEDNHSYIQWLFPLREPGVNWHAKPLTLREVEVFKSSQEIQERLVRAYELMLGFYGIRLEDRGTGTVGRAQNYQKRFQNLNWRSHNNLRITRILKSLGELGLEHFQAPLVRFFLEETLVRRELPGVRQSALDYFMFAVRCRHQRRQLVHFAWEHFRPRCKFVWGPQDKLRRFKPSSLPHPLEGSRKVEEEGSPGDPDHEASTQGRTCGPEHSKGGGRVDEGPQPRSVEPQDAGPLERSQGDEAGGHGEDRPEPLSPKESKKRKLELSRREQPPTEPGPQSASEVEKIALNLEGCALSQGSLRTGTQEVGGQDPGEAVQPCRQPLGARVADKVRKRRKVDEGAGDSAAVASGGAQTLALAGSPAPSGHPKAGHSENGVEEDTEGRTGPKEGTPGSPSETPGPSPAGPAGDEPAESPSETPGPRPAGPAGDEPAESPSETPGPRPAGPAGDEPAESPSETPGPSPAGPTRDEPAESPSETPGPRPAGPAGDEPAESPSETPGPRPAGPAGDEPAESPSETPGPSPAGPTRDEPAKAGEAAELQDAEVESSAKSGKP
Protocol: Tumor tissues from some mice in each treatment group were removed at the time of death, washed free of blood and connective tissue, and immediately frozen in liquid nitrogen. Tissues were assayed following the procedures published previously [ 16]. Saturation binding isotherms were generated using GraphPad Prism software; binding affinity (Kd) and capacity (Bmax) values were provided by the computer software.

SCC-1 SCCHN cells = details: athymic nude, mouse, in vivo
Protocol: Tumor dimensions were recorded every day beginning on the day that the tumors were considered measurable.

PANC-1 cells = assay: Growth assay of PANC-1 cells in 6-well plates; assay type: cell-based, human; details: 72 hr, OGF 10^−6 M and/or gemcitabine 10^−8 M
Protocol: (§1) MIA PaCa-2 and PANC-1 human pancreatic adenocarcinoma cell lines were purchased from the American Type Culture Collection (Manasass, Va.). MIA PaCa-2 cells were derived from an undifferentiated epithelial carcinoma occurring in the body and tail of the pancreas in a person. The PANC-1 cells were derived from an undifferentiated carcinoma from the head of the pancreas in a person. MIA PaCa-2 and PANC-1 cells were grown in Dulbecco's MEM (modified) media; media was supplemented with 10% fetal calf serum, 1.2% sodium bicarbonate, and antibiotics (5,000 Units/ml penicillin, 5 mg/ml streptomycin, 10 mg/ml neomycin), and the cells were maintained in a humidified atmosphere of 7% CO2/93% air at 37° C.
MIA PaCa-2 cells were seeded at equivalent amounts into either 75 cm^2 flasks, 6-well plates, or 96-well plates (Falcon) and counted 24 hr later to determine plating efficiency. […]
(§2) Cell number was recorded either by using a mitogenic bioassay, the MTS assay (Cell Titer 96 One Solution, Promega, Madison, Wis.), and measuring absorbency after 4 hr on a Biorad (Model 3550) plate reader at 490 nm, or by counting cells. For manual counts, cells were harvested with a solution of 0.25% trypsin/0.53 mM EDTA, centrif uiged, and counted with a hemacytometer. Cell viability was determined by trypan blue staining. At least two aliquots per flask or 4-10 wells/treatment were counted at each time.

[2] = tested on: advanced unresectable pancreatic adenocarcinoma; details: some patients; cited from earlier work
MIA PaCa-2 cells [3] = assay: Growth assays of MIA PaCa-2 cells (MTS assay or cell counting), Example 7; assay type: cell-based, human; details: MIA PaCa-2; 96 hr (48 hr after reversal)
Protocol: as §1
MIA PaCa-2 cells were seeded at equivalent amounts into either 75 cm^2 flasks, 6-well plates, or 96-well plates (Falcon) and counted 24 hr later to determine plating efficiency. Growth assays for PANC-1 cells were conducted in 6-well plates (Falcon). Compounds or sterile water were added beginning 24 hr after seeding (=0 hr), and both media and compounds were replaced daily. All drugs were prepared in sterile water and dilutions represent final concentrations of the compounds.
as §2

MIA PaCa-2 cells [4] = assay: MIA PaCa-2 xenograft in nude mice, tumor appearance, growth and termination day measurements (Example 7); assay type: in vivo, BALB/c-nu/nu nude mice
From the text: Male 4 week old BALB/c-nu/nu nude mice purchased from Harlan Laboratories (Indianapolis, Ind.) were housed in pathogen-free isolators in the Department of Comparative Medicine at the Penn State University College of Medicine. All procedures were approved by the IACUC committee of the Penn State University College of Medicine and conformed to the guidelines established by NIH. Mice were allowed 48 hr to acclimate prior to beginning experimentation.
MIA PaCa-2 cells (10^6 cells/mouse) were inoculated into nude mice by subcutaneous injection into the right scapular region; mice were not anesthetized for this procedure.
All drugs were dissolved in saline and prepared weekly. Injections were given within 1 hr of tumor cell inoculation.
Mice were weighed weekly throughout the experiment, and observed daily for the presence of tumors. The latency for a visible tumor to appear, and the time until tumors were measurable (i.e., 62.5 mm^3) were recorded. Tumors were measured using calipers every day after tumor appearance. Tumor volume was calculated using the formula w^2×1×π/6, where the length is the longest dimension, and width is the dimension perpendicular to length.
According to IACUC guidelines, mice were terminated when tumors became ulcerated, or tumors grew to 2 cm in diameter. Forty-five days following tumor cell inoculation, all mice were euthanized by an overdose of sodium pentobarbital (100 mg/kg) and killed by cervical dislocation; mice (with tumors) were weighed. Tumors and spleens were removed and weighed, and the lymph nodes, liver, and spleen examined for metastases.

Molecule: CC(=O)O[C@H]1C(=O)[C@@]2(C)[C@H]([C@H](OC(=O)c3ccccc3)[C@]3(O)C[C@H](OC(=O)[C@H](O)[C@@H](NC(=O)c4ccccc4)c4ccccc4)C(C)=C1C3(C)C)[C@]1(OC(C)=O)CO[C@@H]1C[C@@H]2O [paclitaxel]
- necrosis, number of trypan blue positive cells versus control (SCC-1 cells): No differences in necrosis
- OGF levels in plasma versus control mice with tumors [1]: No differences
- Bmax, fmol/mg protein (OGFr): 27.8 ± 1.6 fmol/mg protein
- mice still alive on termination day, % of the group (SCC-1 SCCHN cells; 50 day): 8%
- day on which mice began dying (SCC-1 SCCHN cells; 50 days): 19 days

Molecule: [Met^5]-enkephalin [OGF]
- fewer cells than in control cultures (PANC-1 cells): 31%
- longest survival of patients [2]: ≤ 23 months
- Bmax, fmol/mg protein (OGFr): 27.2 ± 2.2 fmol/mg protein
- difference in cell number between reversal group and group continuing drug exposure (MIA PaCa-2 cells [3]): 16%
- day from which tumor volume differed from controls (MIA PaCa-2 cells [4]; at least p<0.05): 14 days
- mice with measurable tumors (MIA PaCa-2 cells [4]; day 10): 60%
- tumor volumes decreased from control values (MIA PaCa-2 cells [4]; day 45): 46%
- Tumor Volume, mm^3 (MIA PaCa-2 cells [4]; day 45, means ± SEM): 4849 ± 490*** mm^3
- Tumor Weight (MIA PaCa-2 cells [4]; day 45, means ± SEM): 3.5 ± 0.5 g
- Latency to measurable tumor (MIA PaCa-2 cells [4]; means ± SEM): 14.2 ± 0.8 days
- Latency to visible tumor (MIA PaCa-2 cells [4]; means ± SEM): 10.7 ± 0.8 days
- Tumor Incidence, day 16 (MIA PaCa-2 cells [4]; mice with tumor/N): 10/10
- Tumor Incidence, day 10 (MIA PaCa-2 cells [4]; mice with tumor/N, OGF 10 mg/kg daily and/or gemcitabine 120 mg/kg every 3 days i.p.): 6/10
- weights of tumors decreased from control levels (MIA PaCa-2 cells [4]; termination day (day 45)): 36%
